Values quoted from earlier work in patent publication US8178322B2, “Method for producing an L-amino acid or a nucleic acid” (Ajinomoto Co., Inc., priority 2007, dated 2012).
≈ marks a conversion by molar mass, not a printed value. Read-outs that look alike come from different tables or passages of the source.

Assays:
[1] = not given; remark: listed apart in the source

SMILES	Solubility (20° C.) [g/L]	Solubility (40° C.) [g/L]	Solubility (20° C.) [1] [g/L]	Solubility (40° C.) [1] [g/L]
N[C@@H](CS)C(=O)O [L-cysteine]	160 (≈ 1320 mM)	–	–	–
N[C@@H](CSSC[C@H](N)C(=O)O)C(=O)O [L-cystine]	0.09 (≈ 0.375 mM)	–	–	–
NC(=O)CC[C@H](N)C(=O)O [L-glutamine]	37.3 (≈ 255 mM)	66 (≈ 452 mM)	–	–
N[C@@H](Cc1c[nH]cn1)C(=O)O [L-histidine]	38 (≈ 245 mM)	58 (≈ 374 mM)	–	–
CC[C@H](C)[C@H](N)C(=O)O [L-isoleucine]	–	44 (≈ 335 mM)	–	–
CC(C)C[C@H](N)C(=O)O [L-leucine]	23.8 (≈ 181 mM)	26 (≈ 198 mM)	–	–
N[C@@H](Cc1ccccc1)C(=O)O [L-phenylalanine]	27.4 (≈ 166 mM)	38 (≈ 230 mM)	–	–

The next lines start with the values.

Solubility (20° C.) [g/L]	Solubility (40° C.) [g/L]	Solubility (20° C.) [1] [g/L]	Solubility (40° C.) [1] [g/L]	SMILES
10.6 (≈ 51.9 mM)	14 (≈ 68.6 mM)	–	–	N[C@@H](Cc1c[nH]c2ccccc12)C(=O)O [L-tryptophan]
57.5 (≈ 491 mM)	65 (≈ 555 mM)	–	–	CC(C)[C@H](N)C(=O)O [L-valine]
–	–	3.0 (≈ 11.2 mM)	8.3 (≈ 31.1 mM)	Nc1ncnc2c1ncn2[C@@H]1O[C@H](CO)[C@@H](O)[C@H]1O [adenosine]
–	–	0.42 (≈ 1.48 mM)	1.05 (≈ 3.71 mM)	Nc1nc2c(ncn2[C@@H]2O[C@H](CO)[C@@H](O)[C@H]2O)c(=O)[nH]1 [guanosine]
–	–	206 (≈ 567 mM)	260 (≈ 716 mM)	Nc1nc2c(ncn2[C@@H]2O[C@H](COP(=O)(O)O)[C@@H](O)[C@H]2O)c(=O)[nH]1 [guanylic acid, guanosine-5′-monophosphate]
–	–	44.4 (≈ 166 mM)	83.4 (≈ 311 mM)	OC[C@H]1O[C@@H](n2cnc3c(O)ncnc32)[C@H](O)[C@@H]1O [inosine]
